These are literature values, as cited in patent US20230233180A1, “Emergency Ultrasound Gel” (priority 2022, published 2023).

Molecules are shown by their SMILES. Values after ≈ are worked out from the molar mass of the structure shown. Where two headings read alike, the source gives them in different places.

One data set has as its system wide range of bacteria. The following applies: bactericidal.
Data set [1] relates to wide variety of yeast and fungi.

As a reminder, the MIC is the lowest concentration that inhibits growth of the organism. On to `CCCCN1CCCCC1C(=O)Nc1c(C)cccc1C` (stereo not shown) [Bupivacaine], for which the minimal inhibitory concentration (MIC) in the data set with Candida albicans (Canddia albicans M9) is 1300 mg/L (≈ 4.51 mM); with Candida albicans (Candida albicans 10231), 2500 mg/L (≈ 8.67 mM); in the data set on Candida albicans (Candida albicans H33) it was 2500 mg/L (≈ 8.67 mM); with Candida albicans (Candida albicans H37), 5000 mg/L (≈ 17.3 mM); with Candida albicans (Candida albicans H38), 2500 mg/L (≈ 8.67 mM); in the data set on Candida albicans (Candida albicans M28) it was 1300 mg/L (≈ 4.51 mM). Further, the minimum inhibitory concentration (MIC) is 2500 mg/L (≈ 8.67 mM) with Candida albicans (Candida albicans M36), 1300 mg/L (≈ 4.51 mM) in the data set with Candida albicans (Candida albicans SCO), 2500 mg/L (≈ 8.67 mM) in the data set on Candida albicans (Candida albicans Ser5) and 1300 mg/L (≈ 4.51 mM) with Candida albicans (Candida. albicans H65).

`O=C([O-])CNCO.[Na+]` [Sodium hydroxymethylglycinate]: in the data set on wide range of bacteria, the “concentration that kills a wide range of bacteria” value was 0.09%. In addition, the antifungal effect entry in data set [1] is listed as “does not have strong antifungal effect”.

On to `CCN(CC)CC(=O)Nc1c(C)cccc1C` [Lidocaine], for which the MIC with Candida albicans (Canddia albicans M9) was 2500 mg/L (≈ 10.7 mM); in the data set with Candida albicans (Candida albicans 10231), 5000 mg/L (≈ 21.3 mM); in the data set on Candida albicans (Candida albicans H33), 5000 mg/L (≈ 21.3 mM); in the data set with Candida albicans (Candida albicans H37), 10000 mg/L (≈ 42.7 mM); in the data set on Candida albicans (Candida albicans H38) it was 5000 mg/L (≈ 21.3 mM); with Candida albicans (Candida albicans M28) it was 2500 mg/L (≈ 10.7 mM). In addition, the MIC with Candida albicans (Candida albicans M36) is 5000 mg/L (≈ 21.3 mM); with Candida albicans (Candida albicans SCO), 2500 mg/L (≈ 10.7 mM); in the data set on Candida albicans (Candida albicans Ser5) it was 5000 mg/L (≈ 21.3 mM); in the data set with Candida albicans (Candida. albicans H65) it was 2500 mg/L (≈ 10.7 mM).
